Results published in publication PMC8728441, “Biosynthesis of the redox cofactor mycofactocin is controlled by the transcriptional regulator MftR and induced by long-chain acyl-CoA species” (The Journal of Biological Chemistry, 2021).

Tests used:
MftR–Omft complex = assay: Competitive EMSA screen for effectors of MftR; type: binding, Mycobacterium smegmatis mc^2155; details: 6-FAM Omft 0.5 μM, MftR 5 μM, effectors 100 μM
Protocol: Next, we assessed which metabolites activate MftR and thus could induce MFT production. To do so, we carried out competitive EMSAs where FAM-labeled Omft and MftR were incubated in the presence of potential effectors. We initially chose our effectors based on cholesterol catabolism, a process that putatively includes MFT biosynthetic genes ([38]). […] Knowing that TFRs have a propensity to be activated by fatty acyl-CoAs ([20]), we expanded our effector screening to include short-chain, medium-chain, and long-chain acyl-CoAs.
Figure 4 Effectors of MftR.A, an EMSA used to screen effectors of MftR. The 6-FAM–labeled Omft region (0.5 μM) was incubated with the MftR (5 μM) in the absence or the presence of effectors (100 μM). Protein–DNA complexes were separated by electrophoresis on 5% polyacrylamide gel. […] B, a representative isothermal titration calorimetry thermogram for the binding of the oleoyl-CoA to MftR regulator (blue) and the control of oleoyl-CoA into buffer (red). Each peak corresponds to the injection of 2.22 μl of 250 μM oleoyl-CoA into the cell containing 16 μM MftR or buffer. The integrated thermogram (blue dots) was fitted to a single-site binding model (black line) to determine the Kd. […] C, a bar graph depicting the ITC measured Kds for various acyl-CoAs. Bars represent the mean of three independent experiments, and the error bars represent the standard deviation of the experiments. 6-FAM, 6-carboxyfluorescein; ITC, isothermal titration calorimetry; Omft, mft operator.
His-tagged MftR was used to assess the protein binding to Pmft–MftA promoter fragment. DNA was mixed with increasing concentrations of the MftR protein in the reaction buffer (50 mM Hepes, 50 mM NaCl 0.1 mM EDTA, and pH 7.5) and incubated at room temperature for 10 min. The reactions were resolved by electrophoresis on a 5% (v/v) nondenaturing polyacrylamide gel in 1× Tris/borate/EDTA buffer at 200 V for 20 min on ice. Prior to the analysis, the gel was prerun for 30 min at 150 V on ice. Results were visualized by GelRed and recorded using Azure Biosystems 600 imaging system.

[1] = system: mft BGC (MftA–mCherry reporter); assay: Growth curve assays with Msmeg/Pmft–pCherry; type: cell-based, Mycobacterium smegmatis mc^2155
Protocol: To directly establish that oleoyl-CoA induces MFT biosynthesis in vivo, a colony dilution experiment was carried out using Msmeg transformed with Pmft–pCherry grown on Middlebrook 7H9 (7H9) supplemented with glucose or oleic acid (OA). We used OA in the growth media since it is well known that bacterial fatty acid shuttle systems convert free fatty acids to the corresponding acyl-CoAs and since Msmeg encodes for at least two known fatty acid transporters ([48], [49]). […] To assess when this occurs in real time, growth curve assays with Msmeg/Pmft–pCherry were carried out. […] We observed the same effect when OA was added to the media after 12 h of incubation. Next, we determined if MFT induction is dependent on the concentration of OA. We carried out a titration series of growth curves where 7H9 media were supplemented with 0.05% w/v glucose and 0.01, 0.02, 0.05, or 0.1% w/v OA. […] However, in general, increasing concentrations of OA had little effect on the overall production of the MftA–mCherry fusion. The lack of immediate production of MftA–mCherry after the addition of OA and the concentration independence is perplexing. […] Rather, we expect that a subtler and unknown mechanism is at play.
Figure 7 Growth curve assays with Msmeg/Pmft–pCherry.A, absorbance at 600 nm measurements for the 7H9 media supplemented with 0.1% tyloxapol, 50 μg/ml hygromycin, and glucose and/or oleic acid (OA) as carbon sources. Concentrations of carbon sources were glucose only (0.1% w/v), OA only (0.1% w/v), and glucose/OA (0.05% w/v each) where OA was added after 12 h (blue arrow). B, corresponding fluorescence intensities (excitation of 585 nm/emission of 612 nm) of Msmeg/Pmft–pCherry cultures described in A. C, absorbance at 600 nm measurements for dose-dependent addition of OA to the 7H9 media supplemented with 0.05% w/v glucose and 0.01, 0.02, 0.05, 0.1% w/v of OA. D, corresponding fluorescence intensities of Msmeg/Pmft–pCherry cultures described in C. 7H9, Middlebrook 7H9; Msmeg, Mycobacterium smegmatis mc^2155; Pmft, mft promoter.
For fluorescence-based assays, a single Msmeg colony harboring Pmft–pCherry was used to inoculate 25 ml of 7H9 media supplemented with 0.1% tyloxapol, 0.1% w/v glycerol, 50 μg/ml hygromycin, and 0.1% w/v glucose. For cultures containing OA only, 0.1% w/v OA was used. […] The overnight culture was used to inoculate 7H9 media to an absorbance of 0.05 at 600 nm (1 cm pathlength) with carbon sources supplemented as described previously. […] Aliquots were taken every 2 h, and absorbance at 600 nm values were measured. To track the expression of the Pmft–pCherry fusion, fluorescence measurements were taken on a Cary Fluorimeter every 2 h using an excitation of 585 nm and an emission of 612 nm.

[2] = system: mft BGC (MftA–mCherry reporter); assay: Spot test growth analysis with Pmft–pCherry reporter; type: cell-based, Mycobacterium smegmatis mc^2155; details: 7H9 with 0.05% w/v each glucose and OA, compared with glucose alone
Protocol: To directly establish that oleoyl-CoA induces MFT biosynthesis in vivo, a colony dilution experiment was carried out using Msmeg transformed with Pmft–pCherry grown on Middlebrook 7H9 (7H9) supplemented with glucose or oleic acid (OA). We used OA in the growth media since it is well known that bacterial fatty acid shuttle systems convert free fatty acids to the corresponding acyl-CoAs and since Msmeg encodes for at least two known fatty acid transporters ([48], [49]). […] To assess when this occurs in real time, growth curve assays with Msmeg/Pmft–pCherry were carried out. […] We observed the same effect when OA was added to the media after 12 h of incubation. Next, we determined if MFT induction is dependent on the concentration of OA. We carried out a titration series of growth curves where 7H9 media were supplemented with 0.05% w/v glucose and 0.01, 0.02, 0.05, or 0.1% w/v OA. […]
Figure 6 Induction of MFT biosynthesis by oleoyl-CoA in vivo. […] Fluorescence images were obtained simultaneously from two different petri dishes using 585 nm excitation and 635 nm emission wavelengths. […]
A single time point growth assay was standardized for the growth of Msmeg on 7H9 agar plates with various carbon sources supplemented. […] The absorbance was measured and converted to colony-forming units (CFUs) using the standard 3.13 × 10^7 CFU·ml^−1·absorbance^−1 conversion factor ([58]). […]

MftR (WT) = MftR (WT) (Mycolicibacterium smegmatis, UniProt A0QSB5); assay: ITC binding of acyl-CoAs to MftR; design: species or system Mycobacterium smegmatis mc^2155
Sequence of MftR (WT) (A0QSB5 entry or part of it): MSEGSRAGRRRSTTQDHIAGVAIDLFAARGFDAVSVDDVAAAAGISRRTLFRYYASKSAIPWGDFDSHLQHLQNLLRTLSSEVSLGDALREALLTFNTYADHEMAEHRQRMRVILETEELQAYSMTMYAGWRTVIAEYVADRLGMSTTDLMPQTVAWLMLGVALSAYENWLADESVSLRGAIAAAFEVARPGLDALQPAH
Protocol: ITC was performed using TA Nano ITC. MftR was loaded in the sample cell at the concentration of 16 and 250 μM acyl-CoAs (C12–C18) loaded in the syringe. To minimize the effect of buffer mismatch, the stock concentration of acyl-CoAs was prepared using ITC buffer (50 mM Hepes, 50 mM NaCl, and pH 7.5), and the pH was adjusted to within 0.05 units. In addition, MftR was buffer exchanged into ITC buffer using a PD-10 column (GE Life Sciences). The volume of the titrant added at each injection into the sample cell was 2.22 μl. The time interval between the successive injections was 180 s. The temperature of the cell was kept at 25 °C. The data obtained were fit by independent one-site model using NanoAnalyze Data Analysis, version 3.8.0, that was provided with the instrument.

For `CC(C)(COP(=O)(O)OP(=O)(O)OC[C@H]1O[C@@H](n2cnc3c(N)ncnc32)[C@H](O)[C@@H]1OP(=O)(O)O)[C@@H](O)C(=O)NCCC(=O)NCCS` [CoA], which “disruption of the MftR–Omft complex (DNA release)” value (“disruption” for short) (MftR–Omft complex) is on record?
Its value is “did not disrupt the MftR–Omft complex”.

For `CC(C)CCC[C@@H](C)[C@H]1CC[C@H]2[C@@H]3CC=C4C[C@@H](O)CC[C@]4(C)[C@H]3CC[C@]12C` [cholesterol], which “disruption” value (MftR–Omft complex) is on record?
Its value is “did not observe DNA release”.

Which “disruption” value (MftR–Omft complex) does the source give for `CC(=O)CC(=O)SCCNC(=O)CCNC(=O)[C@H](O)C(C)(C)COP(=O)(O)OP(=O)(O)OC[C@H]1O[C@@H](n2cnc3c(N)ncnc32)[C@H](O)[C@@H]1OP(=O)(O)O` [acetoacetyl-CoA] here?
Its value is “did not observe DNA release”.

With `CCCCCCCC/C=C\CCCCCCCC(=O)O` [OA, oleic acid] as the compound, how does the “fluorescence intensity in OA titration series” value ([1]; 0.05% w/v OA with 0.05% w/v glucose, within 40 h) read?
Its value is “highest fluorescence intensity”.

What about the “fluorescence intensity compared with the control” value ([1]; 0.1% OA only, cultures at nearly the same absorbance) of the same compound?
The value was “nearly three times”.

What about the fluorescence intensity ([1]; OA added to the media after 12 h of incubation (glucose/OA 0.05% w/v each)) of the same compound?
The fluorescence intensity was “same effect”.

And the “overall production of the MftA–mCherry fusion” value ([1]; increasing OA 0.01, 0.02, 0.05, 0.1% w/v with 0.05% w/v glucose)?
The value was “little effect”.

And the “fluorescence intensity of colonies” value [2]?
Its value is “starkly increased”.

With `CCCCCCCCCCCCCC(=O)SCCNC(=O)CCNC(=O)[C@H](O)C(C)(C)COP(=O)(O)OP(=O)(O)OC[C@H]1O[C@@H](n2cnc3c(N)ncnc32)[C@H](O)[C@@H]1OP(=O)(O)O` [myristoyl-CoA] as the compound, how does the “disruption” value (MftR–Omft complex) read?
Its value is “disrupted the MftR–Omft complex”.

For `CCCCCCCCCCCCCCCC(=O)SCCNC(=O)CCNC(=O)[C@H](O)C(C)(C)COP(=O)(O)OP(=O)(O)OC[C@H]1O[C@@H](n2cnc3c(N)ncnc32)[C@H](O)[C@@H]1OP(=O)(O)O` [palmitoyl-CoA], which Kd (MftR (WT)) is on record?
The Kd was 2 to 4 µM.

Which Kd (MftR (WT)) does the source give for `CCCCCCCCCCCCCCCCCC(=O)SCCNC(=O)CCNC(=O)[C@H](O)C(C)(C)COP(=O)(O)OP(=O)(O)OC[C@H]1O[C@@H](n2cnc3c(N)ncnc32)[C@H](O)[C@@H]1OP(=O)(O)O` [steroyl-CoA] here?
Its Kd is 2 to 4 µM.

With `CCCCCCCCCCCC(=O)SCCNC(=O)CCNC(=O)[C@H](O)C(C)(C)COP(=O)(O)OP(=O)(O)OC[C@H]1O[C@@H](n2cnc3c(N)ncnc32)[C@H](O)[C@@H]1OP(=O)(O)O` [lauroyl-CoA] as the compound, how does the “decrease in binding affinity as compared with oleoyl-CoA” value (MftR (WT); ITC, WT MftR) read?
Its value is ~10 fold.

For succinyl-CoA, which “disruption” value (MftR–Omft complex) is on record?
The value was “did not observe DNA release”.

`CCC(=O)SCCNC(=O)CCNC(=O)[C@H](O)C(C)(C)COP(=O)(O)OP(=O)(O)OC[C@H]1O[C@@H](n2cnc3c(N)ncnc32)[C@H](O)[C@@H]1OP(=O)(O)O` [propionyl-CoA] was tested. Which “disruption” value (MftR–Omft complex) did it give?
The value was “did not observe DNA release”.
